In brackets after ≈: the same amount, converted by molar mass.
Legend:
in vitro [1] = details: human, plasma
HD-MB03 = assay: cells; details: Homo sapiens, HD-MB03, 72 h
D283 Med = assay: cells; details: Homo sapiens, 72 h
[2] = human, microsomes
in vitro [3] = details: human, plasma; remark: listed apart in the source
cells = details: Homo sapiens, NALM16, 72 h
[4] = molecular target: T1, Bromodomain-containing protein 2 (Homo sapiens, UniProt P25440); assay: Inhibition of BRD2 BD1 (unknown origin) by TR-FRET assay
[5] = molecular target: T1, Bromodomain-containing protein 2; assay: Inhibition of BRD2 BD2 (unknown origin) by TR-FRET assay
MOLM-13 = assay: cells; details: Homo sapiens, MOLM-13, 72 h
MV4-11 = assay: cells; details: Homo sapiens, MV4-11, 72 h
[6] = molecular target: T2, Bromodomain-containing protein 4 (Homo sapiens, UniProt O60885)
[7] = molecular target: T2, Bromodomain-containing protein 4; remark: listed apart in the source
[8] = Tmax in CD1 mouse at 3 mg/kg, po measured upto 24 hrs by LC-MS/MS method; format: ADME, organism-based; details: in vivo
[9] = Oral bioavailability in CD1 mouse at 3 mg/kg measured upto 24 hrs by LC-MS/MS method; format: ADME, organism-based; details: in vivo
[10] = Half life in CD1 mouse at 1 mg/kg, iv measured upto 24 hrs by LC-MS/MS method; format: ADME, organism-based; details: in vivo
[11] = Tmax in CD1 mouse at 10 mg/kg, po measured upto 24 hrs by LC-MS/MS method; format: ADME, organism-based; details: in vivo
[12] = AUClast in CD1 mouse at 1 mg/kg, iv measured upto 24 hrs by LC-MS/MS method; format: ADME, organism-based; set-up: time < 24 hrs, dose 1 mg/kg, route iv; details: in vivo
[13] = Cmax in CD1 mouse at 1 mg/kg, iv measured upto 24 hrs by LC-MS/MS method; format: ADME, organism-based; set-up: time < 24 hrs, dose 1 mg/kg, route iv; details: in vivo
[14] = Cmax in CD1 mouse at 10 mg/kg, po measured upto 24 hrs by LC-MS/MS method; format: ADME, organism-based; set-up: time < 24 hrs, dose 10 mg/kg, route po; details: in vivo
[15] = Oral bioavailability in CD1 mouse at 10 mg/kg measured upto 24 hrs by LC-MS/MS method; format: ADME, organism-based; details: in vivo
[16] = buffer, pH 7.4, 18 h
[17] = Unbound clearance in CD1 mouse at 3 mg/kg, po measured upto 24 hrs by LC-MS/MS method; format: ADME, organism-based; details: in vivo
[18] = Half life in CD1 mouse at 10 mg/kg, po measured upto 24 hrs by LC-MS/MS method; format: ADME, organism-based; details: in vivo
[19] = Half life in CD1 mouse at 3 mg/kg, po measured upto 24 hrs by LC-MS/MS method; format: ADME, organism-based; details: in vivo
[20] = Downregulation of MYC level in human MV4-11 cells at 1 uM measured after 6 hrs by immunoblotting analysis relative to control; format: functional
[21] = AUClast in CD1 mouse at 3 mg/kg, po measured upto 24 hrs by LC-MS/MS method; format: ADME, organism-based; set-up: dose 3 mg/kg, time < 24 hrs, route po; details: in vivo
[22] = Unbound clearance in CD1 mouse at 10 mg/kg, po measured upto 24 hrs by LC-MS/MS method; format: ADME, organism-based; details: in vivo
[23] = AUClast in CD1 mouse at 10 mg/kg, po measured upto 24 hrs by LC-MS/MS method; format: ADME, organism-based; set-up: dose 10 mg/kg, time < 24 hrs, route po; details: in vivo
[24] = Apparent volume of distribution during terminal phase in CD1 mouse at 1 mg/kg, iv measured upto 24 hrs by LC-MS/MS method; format: ADME, organism-based; details: in vivo
[25] = Cmax in CD1 mouse at 3 mg/kg, po measured upto 24 hrs by LC-MS/MS method; format: ADME, organism-based; set-up: time < 24 hrs, dose 3 mg/kg, route po; details: in vivo
[26] = Downregulation of MYC level in human MV4-11 cells at 100 nM measured after 6 hrs by immunoblotting analysis relative to control; format: functional
[27] = Unbound clearance in CD1 mouse at 1 mg/kg, iv measured upto 24 hrs by LC-MS/MS method; format: ADME, organism-based; details: in vivo
in vitro [28] = details: human, Caco-2

T1 sequence (P25440 whole entry): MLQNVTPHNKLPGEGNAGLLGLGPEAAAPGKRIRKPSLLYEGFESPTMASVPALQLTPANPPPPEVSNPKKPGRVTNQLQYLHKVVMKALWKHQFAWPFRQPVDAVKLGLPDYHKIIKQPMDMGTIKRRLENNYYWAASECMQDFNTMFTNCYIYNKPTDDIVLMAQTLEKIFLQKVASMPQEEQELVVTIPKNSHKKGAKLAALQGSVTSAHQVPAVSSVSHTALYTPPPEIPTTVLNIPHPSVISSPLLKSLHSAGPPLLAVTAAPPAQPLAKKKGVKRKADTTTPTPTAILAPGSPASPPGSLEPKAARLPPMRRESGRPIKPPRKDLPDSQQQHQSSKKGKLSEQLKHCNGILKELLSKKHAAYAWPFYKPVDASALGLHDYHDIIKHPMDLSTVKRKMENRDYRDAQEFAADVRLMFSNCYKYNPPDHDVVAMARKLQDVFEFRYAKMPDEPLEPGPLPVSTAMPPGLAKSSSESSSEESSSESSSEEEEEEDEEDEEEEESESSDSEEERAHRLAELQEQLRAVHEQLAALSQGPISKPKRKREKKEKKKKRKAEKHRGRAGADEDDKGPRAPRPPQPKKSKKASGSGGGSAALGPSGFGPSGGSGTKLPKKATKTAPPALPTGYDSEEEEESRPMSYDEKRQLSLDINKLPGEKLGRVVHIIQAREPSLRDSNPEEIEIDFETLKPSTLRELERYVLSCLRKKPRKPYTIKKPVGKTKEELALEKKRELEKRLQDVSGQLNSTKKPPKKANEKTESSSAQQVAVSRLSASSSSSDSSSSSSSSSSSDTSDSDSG

Cc1sc2c(c1C)C(c1ccc(Cl)cc1)=N[C@@H](CC(=O)OC(C)(C)C)c1nnc(C)n1-2
fraction unbound (in vitro [1]): 0.008
IC50 (HD-MB03): 90 nM
IC50 (D283 Med): 60 nM
t1/2 [2]: 0.4 h
half-life at 48 h (in vitro [3]): > 100 h
IC50 (cells): 18 nM

Cc1sc2c(c1C)C(c1ccc(Cl)cc1)=N[C@@H](CC(=O)NCCc1c[nH]c3ccccc13)c1nnc(C)n1-2
IC50 [4]: 252 nM
IC50 (HD-MB03): 254 nM
IC50 [5]: 50 nM
IC50 (MOLM-13): 318 nM
IC50 (cells): 172 nM
IC50 (MV4-11): 182 nM

COC(=O)[C@H](Cc1c[nH]cn1)NC(=O)C[C@@H]1N=C(c2ccc(Cl)cc2)c2c(sc(C)c2C)-n2c(C)nnc21
IC50 [4]: 32 nM
IC50 (D283 Med): 2930 nM
IC50 [5]: 9 nM
IC50 [6]: 6 nM
IC50 (MOLM-13): 200 nM
IC50 (cells): 791 nM
IC50 [7]: 34 nM
IC50 (MV4-11): 1140 nM

Cc1sc2c(c1C)C(c1ccc(Cl)cc1)=N[C@@H](CC(=O)NCCO)c1nnc(C)n1-2
IC50 (HD-MB03): 42 nM
IC50 (D283 Med): 413 nM
IC50 (MOLM-13): 8 nM
IC50 (cells): 7 nM

Cc1sc2c(c1C)C(c1ccc(Cl)cc1)=N[C@@H](CC(=O)NCc1ccccc1)c1nnc(C)n1-2
IC50 [4]: 21 nM
IC50 (HD-MB03): 619 nM
IC50 [5]: 0.2 nM
half-life at 48 h (in vitro [3]): > 100 h
IC50 [6]: 0.3 nM
IC50 (MOLM-13): 385 nM
IC50 (cells): 452 nM

Cc1sc2c(c1C)C(c1ccc(Cl)cc1)=N[C@@H](CC(=O)NCc1cn(C)cn1)c1nnc(C)n1-2
IC50 [4]: 17 nM
IC50 (HD-MB03): 358 nM
IC50 (D283 Med): 789 nM
IC50 [5]: 3 nM
half-life at 48 h (in vitro [3]): > 100 h
IC50 [6]: 0.6 nM
IC50 (MOLM-13): 52 nM
IC50 (cells): 93 nM
IC50 [7]: 82 nM
IC50 (MV4-11): 143 nM

Cc1sc2c(c1C)C(c1ccc(Cl)cc1)=N[C@@H](CC(=O)NCc1cn(C)nn1)c1nnc(C)n1-2
IC50 [4]: 639 nM
IC50 (HD-MB03): 40 nM
half-life at 48 h (in vitro [3]): > 100 h
IC50 [6]: 26 nM
IC50 (MOLM-13): 11 nM
IC50 (cells): 14 nM
IC50 [7]: 1410 nM
IC50 (MV4-11): 59 nM

Cc1sc2c(c1C)C(c1ccc(Cl)cc1)=N[C@@H](CC(=O)NCc1c[nH]nn1)c1nnc(C)n1-2
IC50 [4]: 8 nM
IC50 (HD-MB03): 3 nM
IC50 (D283 Med): 964 nM
half-life at 48 h (in vitro [3]): > 100 h
IC50 [6]: 1 nM
IC50 (MOLM-13): 3 nM
IC50 (cells): 7 nM
IC50 [7]: 79 nM
IC50 (MV4-11): 253 nM

Cc1sc2c(c1C)C(c1ccc(Cl)cc1)=N[C@@H](CC(=O)NCC(=O)O)c1nnc(C)n1-2
IC50 [4]: 146 nM
IC50 (HD-MB03): 9340 nM
IC50 (D283 Med): > 8850 nM
IC50 [5]: 0.3 nM
half-life at 48 h (in vitro [3]): > 100 h
IC50 [6]: 0.4 nM
IC50 (cells): > 8850 nM
IC50 (MV4-11): 3060 nM

COC(=O)CNC(=O)C[C@@H]1N=C(c2ccc(Cl)cc2)c2c(sc(C)c2C)-n2c(C)nnc21
IC50 (HD-MB03): 359 nM
IC50 (D283 Med): 337 nM
IC50 (MOLM-13): 9 nM
IC50 (cells): 16 nM

Cc1sc2c(c1C)C(c1ccc(Cl)cc1)=N[C@@H](CC(=O)Nc1nncs1)c1nnc(C)n1-2
Tmax [8]: 1 h
F [9]: 70%
IC50 (HD-MB03): 6 nM
IC50 (D283 Med): 56 nM
t1/2 [10]: 1.5 h
IC50 [5]: 0.1 nM
t1/2 [2]: 3.2 h
Tmax [11]: 0.5 h
AUClast [12]: 1567.1 ng·h/mL
Cmax [13]: 1930 ng/mL
Cmax [14]: 3155.6 ng/mL
F [15]: 60%
solubility [16]: 12 µM (≈ 5.81 µg/mL)
half-life at 48 h (in vitro [3]): > 100 h
CL free [17]: 15.2 mL/min/kg
IC50 [6]: 0.2 nM
t1/2 [18]: 3.9 h
t1/2 [19]: 3.9 h
IC50 (MOLM-13): 10 nM
IC50 (cells): 3 nM
Activity [20]: 22%
AUClast [21]: 3275.4 ng·h/mL
CL free [22]: 17.5 mL/min/kg
AUClast [23]: 9473 ng·h/mL
Vz/F [24]: 0.8 L/kg
Cmax [25]: 1555.3 ng/mL
Activity [26]: 50%
CL free [27]: 10.6 mL/min/kg
IC50 [7]: 6 nM
IC50 (MV4-11): 20 nM
Papp A→B (in vitro [28]): 6.65 ×10⁻⁶ cm/s

Cc1sc2c(c1C)C(c1ccc(Cl)cc1)=N[C@@H](CC(=O)NCc1ccccn1)c1nnc(C)n1-2
IC50 [4]: 16 nM
IC50 (HD-MB03): 263 nM
IC50 (D283 Med): 228 nM
IC50 [5]: 0.3 nM
IC50 (MOLM-13): 8 nM
IC50 (cells): 14 nM
IC50 (MV4-11): 444 nM

Cc1sc2c(c1C)C(c1ccc(Cl)cc1)=N[C@@H](CC(=O)Nc1nccs1)c1nnc(C)n1-2
IC50 [4]: 10 nM
IC50 (HD-MB03): 4 nM
half-life at 48 h (in vitro [3]): > 100 h
IC50 (MOLM-13): 22 nM
IC50 (cells): 6 nM
IC50 (MV4-11): 40 nM

Cc1sc2c(c1C)C(c1ccc(Cl)cc1)=N[C@@H](CC(=O)NCc1ccon1)c1nnc(C)n1-2
fraction unbound (in vitro [1]): 0.065
IC50 [4]: 3 nM
IC50 (HD-MB03): 17 nM
IC50 (D283 Med): 25 nM
IC50 [5]: 0.1 nM
t1/2 [2]: 0.4 h
solubility [16]: 56.9 µM (≈ 27.4 µg/mL)
half-life at 48 h (in vitro [3]): > 100 h
IC50 (MOLM-13): 14 nM
IC50 (cells): 12 nM
IC50 (MV4-11): 32 nM
Papp A→B (in vitro [28]): 15 ×10⁻⁶ cm/s

Cc1sc2c(c1C)C(c1ccc(Cl)cc1)=N[C@@H](CC(=O)NCc1ncco1)c1nnc(C)n1-2
IC50 [4]: 9 nM
IC50 (HD-MB03): 1 nM
IC50 (D283 Med): 18 nM
IC50 [5]: 0.1 nM
IC50 (MOLM-13): 2 nM

Cc1sc2c(c1C)C(c1ccc(Cl)cc1)=N[C@@H](CC(=O)Nc1ccc(O)cc1)c1nnc(C)n1-2 [BIRABRESIB]
fraction unbound (in vitro [1]): 0.027
IC50 (D283 Med): 66 nM
t1/2 [2]: 1.7 h
solubility [16]: 23.4 µM (≈ 11.5 µg/mL)
half-life at 48 h (in vitro [3]): > 100 h
IC50 (MOLM-13): 11 nM
IC50 (cells): 14 nM
IC50 (MV4-11): 22 nM
Papp A→B (in vitro [28]): 22.2 ×10⁻⁶ cm/s

— ChEMBL document CHEMBL5346911, “From PROTAC to inhibitor: Structure-guided discovery of potent and orally bioavailable BET inhibitors” (Eur J Med Chem, 2023)
